{"source": "paper PMC9553667", "about": "“Pharmacokinetic Analysis of Diosgenin in Rat Plasma by a UPLC-MS/MS Approach” (Journal of Analytical Methods in Chemistry, 2022)", "key": {"[1]": {"design": "method as in PMID 24954725", "conditions": "rats; cited from earlier work"}, "[2]": {"design": "method as in PMID 23073665, PMID 20671764", "conditions": "cited from earlier work"}, "[3]": {"assay_type": "in vitro ADME, rat", "conditions": "–20°C for 30 days, 25°C for 8 h, three freeze-thaw cycles, 4°C in an autosampler for 12 h"}, "[4]": {"test": "in vivo", "design": "species or system Male Sprague-Dawley rats", "conditions": "rat", "description": "Liquid chromatography was performed using a UPLC system (Waters Corp., Milford, MA, USA) interfaced to a Q-Trap 5500 triple-quadruple mass spectrometer (AB SCIEX, Beijing, China) equipped with an electrospray ionization (ESI) source, as previously described. The isolation was performed on a Waters ACQUITY UPLC BEH C18 rapid resolution high definition column (2.1 × 50 mm, 1.7 μm) at 35°C. The temperature of the UPLC autosampler was 4°C. The mobile phase was mixed with acetonitrile and water (80 : 20, v/v, containing 0.03% formic acid in water). The flow rate was run at 0.3 ml/min. The injection volume was 2 μl, with a total running time of 5 min.\nThe positive ion multiple reaction monitoring (MRM) mode was used for quantification analysis in the mass analyzers, with the transitions of m/z 415.2⟶271.2 for diosgenin with fragment or voltage of 71.96 V and 295.2⟶277.1 for the IS with fragment or voltage of 120 V. The collision voltages for diosgenin and IS were 23.03 and 25.92 eV, respectively. The other settings were as follows: capillary voltage, 5.5 kV; source temperature, 500°C; curtain gas, 35 Psi; GS1, 50 Psi; GS2, 50 Psi.\nBlank plasma samples were obtained from control Sprague-Dawley rats (n = 6). Briefly, 50 μl of the IS solution and 50 μl of plasma were added to a 0.5-ml Eppendorf tube and vortex mixed for 30 s. Methanol-acetonitrile (250 μl; 50 : 50, v/v) was added to the Eppendorf tube, and then, the sample was vortex mixed for 2 min. After centrifuging at 15,000 rpm for 15 min, the supernatants were injected into the UPLC-MS/MS system.\nMale Sprague-Dawley rats (n = 12) weighing 180–220 g were supplied by Beijing Vital River Laboratory Animal Technology Co., Ltd. (Beijing, China; license number SCXK2018-0006). According to the ARRIVE guidelines, all experimental rats were kept under appropriate conditions, including proper humidity, temperature, light, diet, and water. Before starting the experiments, the rats were domesticated for 10 days under laboratory conditions to minimize their suffering. All experimental procedures were performed according to the Animal Care and Use Committee of Chengde Medical University (ethical approval no. CDMULAC-20180410016; Chengde, China). The rats were divided into two groups and were orally administered 100 mg/kg diosgenin and ASD (equivalent to 100 mg/kg diosgenin) suspended in a 0.5% w/v CMC–Na aqueous solution.\nThe caged rats were fasted (water provided ad libitum) for 12 h before the experiment. Before and after single administration of diosgenin, 0.15 ml blood was collected from the inner canthus under 2.5% isoflurane anesthesia in a heparinized blood collection vessel. The blood collection time points were 0.083, 0.25, 0.5, 0.75, 1, 2, 3, 4, 6, 8, 12, 24, 36, 48, and 72 h. Plasma was obtained after centrifugation for 15 min at 15,000 rpm and then stored at –80°C until analysis.\nThe pharmacokinetic parameters were calculated using noncompartmental pharmacokinetics data analysis software of DAS 3.0 (Drug and Statistics software, Drug Clinical Research Center, Shanghai University of Traditional Chinese Medicine, Shanghai, China). Relative bioavailability (F) was calculated according to the following formula:(1) F%=AUC0⟶∞diosgenin ASD/AUC0⟶∞diosgenin×100%."}, "[5]": {"assay_type": "in vitro ADME, rat", "conditions": "n = 6; for Measured concentration, autosampler stability: processed rat plasma, autosampler 4°C for 24 h; for Measured concentration, short-term stability / Measured concentration, freeze-thaw stability / Measured concentration, long-term stability: rat plasma; for Measured concentration, short-term stability: 25°C for 8 h; for Measured concentration, long-term stability: −20°C for 30 days", "description": "Standard working solutions of diosgenin and IS were prepared by diluting stock solutions (100 μg/ml) with methanol. A series of calibration standards and QC working solutions were serially diluted with methanol from the standard solution. The working solutions were diluted with drug-free rat plasma at concentrations of 0.5, 1, 5, 50, 200, 1000, and 1,500 ng/ml. Similarly, the QC samples were made up at 5, 50, and 1,000 ng/ml, and IS was 42 ng/ml. All samples were immediately stored at −20°C.\nQC samples in rat plasma at three concentrations were analyzed by assessing the stability of diosgenin under four conditions. Long-term stability was investigated by assaying QC samples kept at −20°C for 30 days. The short-term stability of QC samples was assessed for 8-h storage at 25°C. Freeze-thaw stability was determined by analyzing QC samples after three freeze-thaw cycles (−40°C to 25°C). Postpreparative stability was evaluated after a 24-h placement of QC samples in an autosampler at 4°C after preparation. When the accuracy and the precision were both within ±15% after the four tests, the stabilities were guaranteed."}, "[6]": {"conditions": "male, Sprague-Dawley, po, 100 mg/kg"}}, "note": "Where two headings read alike, the source gives them in different places.", "data": [{"smiles": "C[C@@H]1CC[C@@]2(OC1)O[C@H]1C[C@H]3[C@@H]4CC=C5C[C@@H](O)CC[C@]5(C)[C@H]4CC[C@]3(C)[C@H]1[C@@H]2C", "note": "[Diosgenin]", "values": [{"measurement": "Absolute bioavailability", "setting": "[1]", "result": "approximately 7%"}, {"measurement": "Aqueous solubility", "setting": "[2]", "result": "poor aqueous solubility"}, {"measurement": "Stability in plasma under the storage conditions", "setting": "[3]", "result": "remained stable"}, {"measurement": "CL/F", "setting": "[4]; male, Sprague-Dawley, oral, 100 mg/kg diosgenin or equivalent, mean ± SD, n = 6, read-out: CLz/F (converted)", "result": 207, "unit": "mL/min/kg"}, {"measurement": "Vd/F", "setting": "[4]; male, Sprague-Dawley, oral, 100 mg/kg diosgenin or equivalent, mean ± SD, n = 6, read-out: Vz/F", "result": "231 ± 161", "unit": "L/kg"}, {"measurement": "half-life", "setting": "[4]; male, Sprague-Dawley, oral, 100 mg/kg diosgenin or equivalent, mean ± SD, n = 6, read-out: t1/2z (converted)", "result": "12.3 ± 3.02", "unit": "h"}, {"measurement": "Cmax", "setting": "[4]; [6]", "result": "480 ± 121", "unit": "ng/mL"}, {"measurement": "MRT last", "setting": "[4]; [6]", "result": "22.8 ± 5.55", "unit": "h"}, {"measurement": "Tmax", "setting": "[4]; [6]", "result": "8.73 ± 5.74", "unit": "h"}, {"measurement": "AUC0-t", "setting": "[4]; po, 100 mg/kg", "result": "9,302.27 ± 5,013.38 μg/l∗h"}, {"measurement": "AUC0-∞", "setting": "[4]; po, 100 mg/kg", "result": "9,598.01 ± 5,151.91 μg/l∗h"}, {"measurement": "Measured concentration, autosampler stability", "setting": "[5]; indicated 5 ng/ml", "result": "5.32 ± 0.37", "unit": "ng/mL"}, {"measurement": "Measured concentration, autosampler stability", "setting": "[5]; indicated 50 ng/ml", "result": "50.59 ± 3.69", "unit": "ng/mL"}, {"measurement": "Measured concentration, autosampler stability", "setting": "[5]; indicated 1000 ng/ml", "result": "1001.01 ± 62.63", "unit": "ng/mL"}, {"measurement": "Measured concentration, short-term stability", "setting": "[5]; indicated 5 ng/ml", "result": "5.41 ± 0.33", "unit": "ng/mL"}, {"measurement": "Measured concentration, short-term stability", "setting": "[5]; indicated 50 ng/ml", "result": "50.23 ± 2.56", "unit": "ng/mL"}, {"measurement": "Measured concentration, short-term stability", "setting": "[5]; indicated 1000 ng/ml", "result": "1000.88 ± 44.34", "unit": "ng/mL"}, {"measurement": "Measured concentration, freeze-thaw stability", "setting": "[5]; three freeze-thaw cycles (−40°C to 25°C), indicated 5 ng/ml", "result": "5.98 ± 0.35", "unit": "ng/mL"}, {"measurement": "Measured concentration, freeze-thaw stability", "setting": "[5]; three freeze-thaw cycles, indicated 50 ng/ml", "result": "51.69 ± 4.36", "unit": "ng/mL"}, {"measurement": "Measured concentration, freeze-thaw stability", "setting": "[5]; three freeze-thaw cycles, indicated 1000 ng/ml", "result": "1002.9 ± 54.44", "unit": "ng/mL"}, {"measurement": "Measured concentration, long-term stability", "setting": "[5]; indicated 5 ng/ml", "result": "5.99 ± 0.28", "unit": "ng/mL"}, {"measurement": "Measured concentration, long-term stability", "setting": "[5]; indicated 50 ng/ml", "result": "50.02 ± 3.72", "unit": "ng/mL"}, {"measurement": "Measured concentration, long-term stability", "setting": "[5]; indicated 1000 ng/ml", "result": "1001.65 ± 42.42", "unit": "ng/mL"}]}]}
